The record followed here is US5235061A, “Fungicidal (1H-1,2,4-triazolyl)disilaalkanes” (priority 1991, dated 1993).

Holding throughout (test): In vitro percent disease control (radii of spore growth on agar)
Format in all cases: cell-based

In one series the test system is Rhizoctonia solani. The following applies: for inhibition of growth at 50 ppm / inhibition of growth at 100 ppm: Rhizoctonia solani, read-out: % controlled, Rhy. so. The method in brief: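 Test compounds at 100 ppm and 50 ppm (acetone 10% of final volume, then water) were mixed into potato-sucrose-agar, and the fungus was spotted at the dish centre. Dishes were incubated several days in a growth room. Percent disease control was derived from the radii of spore growth.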

A further series relates to Pyricalaria oryzae. The following applies: for inhibition of growth at 50 ppm: read-out: % controlled, Py. or., 50 ppm; for inhibition of growth at 100 ppm: read-out: % controlled, Py. or., 100 ppm. The method in brief:
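Compounds at 100 ppm and 50 ppm (10% acetone in water) mixed into potato-sucrose-agar, P. oryzae spotted centrally and incubated several days. Percent disease control derived from radii of spore growth.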

In the next series the test system is Fusarium moniliforme. The method in brief: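 Compounds in 10% acetone/water at 100 and 50 ppm were mixed into potato-sucrose-agar, with Fusarium moniliforme spotted centrally. After several days' incubation, percent disease control was derived from radii of spore growth.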
The subject of a further series is Alternaria mali. The note with it: for inhibition of growth at 50 ppm / inhibition of growth at 100 ppm: Alternaria mali, read-out: % controlled, Al. Put shortly: (§1)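 Compounds in acetone (10% of final volume) diluted with water to 100 and 50 ppm, then mixed into potato-sucrose-agar with each fungus spotted centrally. Incubated several days in a growth room; percent disease control derived from radii of spore growth.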

For another series, the system named is Rhizopus sp. The note with it: for inhibition of growth at 50 ppm / inhibition of growth at 100 ppm: Rhizopus, read-out: % controlled, Rhi. sp. The method in brief: as §1
The next series relates to Glomerella cingulata. The note with it: for inhibition of growth at 50 ppm / inhibition of growth at 100 ppm: Colletotrichum gloeosporioides, read-out: % controlled, Glo. Put shortly: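 Compounds were dissolved in acetone (10% of final volume) plus water at 100 ppm and 50 ppm and mixed into potato-sucrose agar. G. cingulata was spotted centrally and incubated for several days in a growth room. Percent disease control was derived from the radii of spore growth.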

The subject of another series is Physalospora baccae. The following applies: for inhibition of growth at 50 ppm / inhibition of growth at 100 ppm: read-out: % controlled, Phy ba. Put shortly:
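Compounds at 100 and 50 ppm (10% acetone) mixed into potato-sucrose-agar, fungus spotted centrally and grown several days in a growth room. Percent disease control derived from radii of spore growth.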

Series [1] has as its system Botryosphaeria dothidea Macrophoma sp. The following applies: for inhibition of growth at 50 ppm / inhibition of growth at 100 ppm: Botryosphaeria dothidea, read-out: % controlled, Bo.do (Ma.). Put shortly:
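Compounds (100 and 50 ppm, 10% acetone in water) were mixed into potato-sucrose-agar and the fungus was spotted centrally, then incubated several days in a growth room. Percent disease control came from radii of spore growth.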

The next series relates to Botry tris cinerea. The note with it: for inhibition of growth at 50 ppm / inhibition of growth at 100 ppm: read-out: % controlled, Bo ci. Put shortly:
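Compounds at 100 and 50 ppm (acetone 10% of final volume, rest water) mixed into potato-sucrose agar; Botrytis cinerea spotted at dish centre. After several days' incubation, percent disease control calculated from radii of spore growth.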

For another series, the system named is Phytophthora capsisi. The note with it: for inhibition of growth at 50 ppm / inhibition of growth at 100 ppm: Phytophthora, read-out: % controlled, Phy ca. Put shortly: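 Compounds dissolved in acetone (10% of final volume) then water at 100 ppm and 50 ppm, mixed into potato-sucrose-agar; fungus spotted at plate centre and incubated several days. Percent disease control derived from radii of spore growth.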

As for `C=CC[Si](C)(Cn1cncn1)C[Si](CC=C)(c1ccccc1)c1ccccc1` (stereo not shown) [6,6-diphenyl-4-methyl-4,6-disila-4-(1H-1,2,4-triazol-1-ylmethyl)-1,8-nonadiene], the inhibition of growth at 50 ppm came to 80% in the series with Rhizoctonia solani (50 ppm); 100% in the series with Pyricalaria oryzae; 72% in the series on Alternaria mali (50 ppm); 50% in the series with Rhizopus sp. (50 ppm); 89% with Glomerella cingulata (50 ppm); 84% in the series with Physalospora baccae (50 ppm). The inhibition of growth at 50 ppm in series [1] (50 ppm) is 80%; in the series on Botry tris cinerea (50 ppm), 77%; in the series on Phytophthora capsisi (50 ppm) it was 33%. For the same compound, the inhibition of growth at 100 ppm in the series with Rhizoctonia solani (100 ppm) is 100%; in the series on Pyricalaria oryzae, 100%; in the series with Alternaria mali (100 ppm), 89%; with Rhizopus sp. (100 ppm) it was 100%; in the series with Glomerella cingulata (100 ppm) it was 100%; with Physalospora baccae (100 ppm), 100%. In addition, the values for the inhibition of growth at 100 ppm (in series [1] (100 ppm); with Botry tris cinerea (100 ppm); in the series on Phytophthora capsisi (100 ppm)) were 100%, 100% and 40%, respectively. The “% controlled, Fu. mo.” value in the series on Fusarium moniliforme (50 ppm) was determined as 60%; in the series with Fusarium moniliforme (100 ppm), 100%.
For `C=CC[Si](C[Si](CC)(Cn1cncn1)c1ccc(OCC)cc1)(c1ccc(F)cc1)c1ccc(F)cc1` (stereo not shown) [6-(4-ethoxyphenyl)-4,4-bis(4-fluorophenyl)-6-ethyl-4,6-disila-7-(1H-1,2,4-triazol-1-yl)-1-heptane], the “% controlled, Rhy. so.” value in the series on Rhizoctonia solani (50 ppm) and in the series with Rhizoctonia solani (100 ppm) was 100% in each case. The “% controlled, Py. or.” value turned out to be 70% in the series with Pyricalaria oryzae (50 ppm) and 75% in the series with Pyricalaria oryzae (100 ppm). Besides, the “% controlled, Fu. mo.” value in the series with Fusarium moniliforme (50 ppm) and in the series on Fusarium moniliforme (100 ppm) was 90% each time. Besides, the “% controlled, Al.” value in the series on Alternaria mali (50 ppm) and in the series with Alternaria mali (100 ppm) was 100% in each case. Moreover, the “% controlled, Rhi. sp.” value in the series on Rhizopus sp. (50 ppm) is listed as 80%; in the series on Rhizopus sp. (100 ppm) it was 90%. Further, the “% controlled, Glo.” value with Glomerella cingulata (50 ppm) and with Glomerella cingulata (100 ppm) was 80% each time. For the same compound, the entries for the “% controlled, Phy ba.” value in the series on Physalospora baccae (50 ppm) and in the series on Physalospora baccae (100 ppm) were 60% and 75%, respectively. The “% controlled, Bo.do (Ma.)” value came to 65% in [1] (50 ppm) and 69% in series [1] (100 ppm). Also, the “% controlled, Bo ci.” value in the series on Botry tris cinerea (50 ppm) and in the series with Botry tris cinerea (100 ppm) was 60% throughout. In addition, the results for the “% controlled, Phy ca.” value with Phytophthora capsisi (50 ppm) and in the series with Phytophthora capsisi (100 ppm) were 80% and 90%, respectively.
On to `C=CC[Si](C[Si](C)(Cn1cncn1)c1ccc(OCC)cc1)(c1ccccc1)c1ccc(-c2ccccc2)cc1` (stereo not shown) [6-(4-ethoxyphenyl)-6-methyl-4-phenyl-4-(4-phenylphenyl-4,6-disila-7-(1H-1,2,4-triazol-1-yl)-1-heptane], for which the inhibition of growth at 50 ppm in the series with Rhizoctonia solani (50 ppm) came out at 100%; in the series on Pyricalaria oryzae, 75%; in the series on Alternaria mali (50 ppm) it was 100%; with Rhizopus sp. (50 ppm) it was 75%; in the series on Glomerella cingulata (50 ppm), 80%; in the series on Physalospora baccae (50 ppm), 100%. Also, the inhibition of growth at 50 ppm in series [1] (50 ppm) was determined as 100%; with Botry tris cinerea (50 ppm), 80%; with Phytophthora capsisi (50 ppm), 60%. The inhibition of growth at 100 ppm in the series with Rhizoctonia solani (100 ppm) came to 100%; with Pyricalaria oryzae, 85%; in the series on Alternaria mali (100 ppm), 100%; in the series with Rhizopus sp. (100 ppm) it was 75%; with Glomerella cingulata (100 ppm), 90%; in the series with Physalospora baccae (100 ppm), 100%. The inhibition of growth at 100 ppm in [1] (100 ppm) is 100%; in the series on Botry tris cinerea (100 ppm), 85%; in the series on Phytophthora capsisi (100 ppm) it was 70%. Moreover, the “% controlled, Fu. mo.” value with Fusarium moniliforme (50 ppm) and with Fusarium moniliforme (100 ppm) was 80% throughout.
`C=CC[Si](C)(Cn1cncn1)C[Si](CC=C)(CC=C)c1ccc(F)cc1` (stereo not shown) [6-(4-fluorophenyl)-4-methyl-6-(2-propenyl)-4,6-disila-4-(1H-1,2,4-triazol-1-ylmethyl)-1,8-nonadiene]: the inhibition of growth at 50 ppm in the series on Rhizoctonia solani (50 ppm) was found to be 96%; in the series with Pyricalaria oryzae, 100%; with Alternaria mali (50 ppm) it was 78%; in the series with Rhizopus sp. (50 ppm), 56%; with Glomerella cingulata (50 ppm) it was 82%; with Physalospora baccae (50 ppm) it was 90%. For the same compound, the inhibition of growth at 50 ppm in series [1] (50 ppm) was determined as 79%; with Botry tris cinerea (50 ppm), 90%; in the series with Phytophthora capsisi (50 ppm) it was 55%. For the same compound, the inhibition of growth at 100 ppm worked out at 96% in the series on Rhizoctonia solani (100 ppm); 100% in the series with Pyricalaria oryzae; 90% with Alternaria mali (100 ppm); 58% in the series on Rhizopus sp. (100 ppm); 85% in the series with Glomerella cingulata (100 ppm); 95% in the series with Physalospora baccae (100 ppm). Besides, the inhibition of growth at 100 ppm in [1] (100 ppm) was 90%; in the series with Botry tris cinerea (100 ppm), 95%; in the series with Phytophthora capsisi (100 ppm), 60%. The “% controlled, Fu. mo.” value in the series on Fusarium moniliforme (50 ppm) and in the series with Fusarium moniliforme (100 ppm) was 60% each time.
Turning to `C=CC[Si](C)(Cn1cncn1)C[Si](CC=C)(c1ccccc1)c1ccc(F)cc1` (stereo not shown) [6-(4-fluorophenyl)-4-methyl-6-phenyl-4,6-disila-4-(1H-1,2,4-triazol-1-ylmethyl)-1,8-nonadiene], the inhibition of growth at 50 ppm in the series on Rhizoctonia solani (50 ppm) was 96%; with Pyricalaria oryzae, 90%; in the series on Alternaria mali (50 ppm), 55%; in the series on Rhizopus sp. (50 ppm), 50%; in the series with Glomerella cingulata (50 ppm), 80%; in the series on Physalospora baccae (50 ppm) it was 82%. Besides, the inhibition of growth at 50 ppm in series [1] (50 ppm) stood at 79%; in the series with Botry tris cinerea (50 ppm), 60%; in the series with Phytophthora capsisi (50 ppm) it was 65%. Besides, the inhibition of growth at 100 ppm came to 96% with Rhizoctonia solani (100 ppm); 90% with Pyricalaria oryzae; 92% in the series with Alternaria mali (100 ppm); 50% in the series with Rhizopus sp. (100 ppm); 85% in the series on Glomerella cingulata (100 ppm); 82% in the series on Physalospora baccae (100 ppm). For the same compound, the inhibition of growth at 100 ppm was found to be 79% in series [1] (100 ppm), 70% in the series on Botry tris cinerea (100 ppm) and 70% with Phytophthora capsisi (100 ppm). The entries for the “% controlled, Fu. mo.” value with Fusarium moniliforme (50 ppm) and in the series with Fusarium moniliforme (100 ppm) were 60% and 66%, respectively.
